Laboratory results published in publication PMC5201116, “Bioactive Flavonoids and Catechols as Hif1 and Nrf2 Protein Stabilizers - Implications for Parkinson’s Disease” (Aging and Disease, 2016).

Legend:
[1] = test system: VEGF mRNA in immature primary cortical neurons; experiment: VEGF mRNA induction, real-time RT-PCR; type: cell-based; settings: Fig. 4B
Protocol: For VEGF gene expression studies, total RNA was isolated from immature primary cortical neurons, pretreated overnight with the indicated concentration of a bioactive compound, using the NucleoSpin RNA II kit (Macherey-Nagel, Bethlehem, PA) according to manufacturer’s protocol. Real-time PCR was performed in triplicate as a duplex reaction using a VEGF (Mm01281449_m1) gene expression assay with a 6-carboxyfluorescein-labeled probe, and a β actin gene expression assay with a VIC-labeled probe (Applied Biosystems, Foster City, CA), so that gene amplification could be normalized to β actin. These experiments were performed using a 7500 Real-time PCR System (Applied Biosystems) using standard PCR protocol and amplification conditions.

HO-1 mRNA in brain = experiment: Brain HO-1 mRNA levels after NDGA; type: in vivo, mouse; settings: 6 hours after last dose, data not shown
Protocol: We used an acute paradigm of MPTP administration (10 mg MPTP/kg X 3, every two hours), known to cause about a 50% loss of striatal dopamine and its metabolites DOPAC and HVA and significant loss of tyrosine hydroxylase (TH) immunopositive neurons in the substantia nigra pars compacta (SNpc) on the 7th day. […] The doses that were used to determine the efficacy of NDGA against MPTP were determined by evaluation of brain HO-1 levels. Both 50 and 100 mg/kg administered twice a day induced a dose dependent increase in HO-1 mRNA levels at 6 hours after last dose of NDGA.

[2] = test system: HRE-luciferase reporter (HT22 hippocampal cell line); experiment: HRE-luc reporter assay; type: cell-based; settings: Mus musculus, HT-22, 3 h; at 10 µM; read-out: HRE-luc fold activation
Description: A promoter-reporter construct that contained 68 bp of a known hypoxia and HIF-1 regulated gene, enolase, containing a wild type hypoxia response element (HRE, 5’-RCTGT-3’), is a widely used approach for screening for HIF activators of different mechanism of action. A cell-based assay with HRE-luciferase reporter system is based on transfected immortalized hippocampal cell line (HT22) and allows screening for a broad spectrum of compounds that include: activators of HIF transcription; activators of HIF binding to HRE; and effectors of HIF protein stability (PHD inhibitors, pVHL & proteasome inhibitors). The assay was performed the same way as for HIF ODD-luc reporter except the cells were plated at the density of 10,000 cell per well and incubated overnight.

[3] = test system: primary neuronal cultures treated with 5 mM HCA; experiment: Glutathione depletion (HCA) model, MTT viability; type: cell-based, rat; settings: glutathione depletion model, Fig. 5
Protocol: Primary neuronal cultures were prepared from the forebrains of Sprague-Dawley rat embryos (E17) and plated on 96 well plates at a 10^6 cells/ml density. After 24 hours, cells were rinsed with warm PBS and then placed in minimum Essential Medium (MEM; Life Technologies, Grand Island, NY) containing 5 mM HCA in the presence of a compound of interest at varied concentrations. Cells were incubated for 24 h or longer to see 90% cell death in HCA treated controls. Viability was assessed by the MTT (4,5-dimethylthiazol-2-yl)-2,5-diphenyltetrazolium bromide) assay.

CC(Cc1ccc(O)c(O)c1)C(C)Cc1ccc(O)c(O)c1 (centres unmarked) [compound 28, 4,4'-(2,3-dimethylbutane-1,4-diyl)dibenzene-1,2-diol]
VEGF induction potency relative to FG-4592 [1]: at least 2 times | increase in HO-1 mRNA levels (HO-1 mRNA in brain; 50 mg/kg twice a day): 1.2 fold | increase in HO-1 mRNA levels (HO-1 mRNA in brain; 100 mg/kg twice a day): 6 fold | fold induction at 10 µM [2]: 2 ± 0.2 | concentration at which neuroprotection begins [3]: 2.5 µM
